Structures are written as SMILES. Where a name gives a salt, the structure may show the parent alone.

`Cc1cccc2c1N(C1CCN(S(=O)(=O)c3cccc(Cl)c3Cl)CC1)C(=O)OC2` displayed a melting point of 184 to 185 °C.

`Cl.O=C1c2ccccc2-c2cc(NC(=O)C(c3ccccc3)N3CCC(N4C(=O)OCc5ccccc54)CC3)ccc21` (centres unmarked) had a melting point of 247 to 249 °C.

As for `CC(C(=O)Nc1ccc2c(c1)-c1ccccc1C2=O)N1CCC(N2C(=O)OCc3ccccc32)CC1.Cl` (centres unmarked), the melting point lay in the range of 242 to 252 °C.

`Cc1ccc2c(c1)COC(=O)N2C1CCN(CC(=O)Nc2ccc3c(c2)-c2ccccc2C3=O)CC1` had a melting point of 237 to 239 °C.

`CN(C)CCn1ccc2cc(NS(=O)(=O)/C=C/c3ccccc3)ccc21`: the melting point lay within 108 to 111 °C.

For the compound `CN(C)CCc1c[nH]c2ccc(NS(=O)(=O)c3cccc4nsnc34)cc12`, the melting point was 192 °C.

The compound `Cc1ccc2c(c1)COC(=O)N2C1CCN(CC(=O)Nc2ccc(C3CCCCC3)cc2)CC1` had a melting point of 155 to 157 °C.

Consider `Cc1ccc2c(c1)COC(=O)N2C1CCN(CC(=O)Nc2ccc(C3CCCCC3)cc2)CC1.Cl`, for which the melting point lay in the range of 242 to 246 °C.

As to `CN(C)CCc1c[nH]c2ccc(NS(=O)(=O)c3ccc4c(Cl)cccc4c3)cc12`, the melting point is 230 to 240 °C (dec.).

`Cl.Cn1c2ccccc2c2cc(NC(=O)CN3CCC(N4C(=O)OCc5ccccc54)CC3)ccc21` registered a melting point of 191 to 193 °C.

With `CN(C)CCc1c[nH]c2ccc(NS(=O)(=O)c3ccc(-c4ccccc4)cc3)cc12`, the melting point was 184 to 186 °C.

`Cl.O=C(CN1CCC(N2C(=O)OCc3ccccc32)CC1)Nc1ccc2c(c1)C(=O)c1ccccc1C2=O`: the melting point lay within 280 to 282 °C.

Turning to `Cc1c(S(=O)(=O)Nc2ccc3[nH]cc(CCN4CCOCC4)c3c2)sc2ccc(Cl)cc12`, the melting point was 200 to 201 °C.

`O=S(=O)(Nc1ccc2[nH]cc(CCN3CCOCC3)c2c1)c1cccc2ccccc12`: the melting point fell in the range of 218 to 220 °C.

For the compound `Cl.O=C(CN1CCC(N2C(=O)OCc3ccccc32)CC1)Nc1ccc(Oc2ccccc2)cc1`, the melting point lay in the range of 242 to 248 °C.

For the compound `CCN(CC)CCc1c[nH]c2ccc(NS(=O)(=O)c3ccc4ccccc4c3)cc12`, the melting point fell in the range of 134 to 136 °C.

Regarding `CCN(CC)CCn1ccc2cc(NS(=O)(=O)c3ccc4ccccc4c3)ccc21`, the melting point fell in the range of 97 to 104 °C.

Regarding `CCN(CC)CCc1c[nH]c2ccc(NS(=O)(=O)c3cccc4ccccc34)cc12`, the melting point came to 170 °C.

As to `Cl.O=C(CCN1CCC(N2C(=O)OCc3ccccc32)CC1)Nc1ccc2c(c1)-c1ccccc1C2=O`, the melting point fell in the range of 240 to 242 °C.

The compound `CCCN(CCC)CCc1c[nH]c2ccc(NS(=O)(=O)c3cccc4ccccc34)cc12` registered a melting point of 76 to 80 °C.

Consider `CCn1c2ccccc2c2cc(NC(=O)CN3CCC(N4C(=O)OCc5cc(Cl)ccc54)CC3)ccc21.Cl`, for which the melting point lay in the range of 265 to 268 °C.

In turn, `CCCCN(CCCC)CCc1c[nH]c2ccc(NS(=O)(=O)c3sc4ccc(Cl)cc4c3C)cc12` gave a melting point of 79 to 80 °C.

`Cl.O=C(CN1CCC(N2C(=O)OCc3cc(Cl)ccc32)CC1)Nc1ccc(Cl)cc1` yielded a melting point of 279 to 282 °C.

As for `CCCCN(CCCC)CCc1c[nH]c2ccc(NS(=O)(=O)c3cccc4ccccc34)cc12`, the melting point is 111 to 113 °C.

Compound `Cc1cccc2c1N(C1CCN(CC(=O)Nc3ccc4c(c3)-c3ccccc3C4=O)CC1)C(=O)OC2.Cl` returned a melting point of 233 to 236 °C.

With `CCN(CC)CCc1c[nH]c2ccc(NS(=O)(=O)c3cccc4c(Cl)cccc34)cc12`, the melting point is 154 to 156 °C.

As to `Cl.O=C(CN1CCC(N2C(=O)OCc3cc(Cl)ccc32)CC1)Nc1ccc2c(c1)-c1ccccc1C2=O`, the melting point was 245 to 249 °C.

The compound `CCN(CC)CCc1c[nH]c2ccc(NS(=O)(=O)/C=C/c3ccccc3)cc12` displayed a melting point of 125 to 130 °C.

On to `CN1CCN(Cc2c[nH]c3ccc(NS(=O)(=O)/C=C/c4ccccc4)cc23)CC1`, for which the melting point was 203 °C (dec.).

`Cl.O=C(CN1CCC(N2C(=O)OCc3ccccc32)CC1)Nc1ccc2c(c1)C(O)c1ccccc1-2` (centres unmarked): the melting point was > 225 °C (dec.).

`Cl.O=C(CN1CCC(N2C(=O)OCc3cc(Cl)ccc32)CC1)Nc1ccc2c(c1)-c1ccccc1C2O` (centres unmarked) registered a melting point of 219 to 222 °C.

Take `CCN(CC)CCc1c[nH]c2ccc(NS(=O)(=O)c3c(Cl)nc4sccn34)cc12`: the melting point was in the range of 197 to 198 °C.

As for `CCn1c2ccccc2c2cc(NC(=O)CN3CCC(N4C(=O)OCc5cccc(C)c54)CC3)ccc21.Cl`, the melting point fell in the range of 229 to 232 °C.

`Cc1cccc2c1N(C1CCN(CC(=O)Nc3ccc(C(F)(F)F)cc3)CC1)C(=O)OC2.Cl`: the melting point was in the range of 264 to 274 °C.

On to `Cc1cccc2c1N(C1CCN(CC(=O)Nc3ccccc3)CC1)C(=O)OC2.Cl`, for which the melting point was in the range of 232 to 239 °C.

`Cl.O=C(CN1CCC(N2C(=O)OCc3ccccc32)CC1)Nc1ccc(C(F)(F)F)cc1` had a melting point of 276 to 284 °C.

For `Cl.O=C(CN1CCC(N2C(=O)OCc3cc(Cl)ccc32)CC1)Nc1ccccc1`, the melting point lay within 265 to 277 °C.

In turn, `Cc1c(S(=O)(=O)Nc2ccc3[nH]cc(CCN4CCCC4)c3c2)sc2ccc(Cl)cc12` registered a melting point of 201 to 203 °C.

Turning to `O=S(=O)(Nc1ccc2c(ccn2CCCN2CCCCC2)c1)c1ccc2ccccc2c1`, the melting point fell in the range of 92 to 108 °C.

Compound `Cl.O=C(CN1CCC(N2C(=O)OCc3ccccc32)CC1)Nc1ccccc1` registered a melting point of 262 to 272 °C.

`Cc1cccc2c1N(C1CCN(CC(=O)Nc3ccc(Cl)cc3)CC1)C(=O)OC2.Cl` showed a melting point of 245 to 253 °C.

For `Cl.N#Cc1ccc(NC(=O)CN2CCC(N3C(=O)OCc4ccccc43)CC2)cc1`, the melting point lay within 268 to 282 °C.

The compound `Cc1cccc2c1N(C1CCN(CC(=O)Nc3ccc(C#N)cc3)CC1)C(=O)OC2.Cl` gave a melting point of 229 to 234 °C.

Compound `CN(C)CCc1c[nH]c2ccc(NS(=O)(=O)c3ccc4ccccc4c3)cc12` gave a melting point of 180 to 190 °C.

In turn, `Cl.N#Cc1ccc(NC(=O)CN2CCC(N3C(=O)OCc4cc(Cl)ccc43)CC2)cc1` showed a melting point of 274 to 278 °C.

With `O=S(=O)(Nc1ccc2[nH]cc(CCN3CCOCC3)c2c1)c1cccc2cccnc12`, the melting point is 234 to 235 °C.

As to `Cc1cccc2c1N(C1CCN(CC(=O)Nc3ccc(Oc4ccccc4)cc3)CC1)C(=O)OC2.Cl`, the melting point fell in the range of 162 to 167 °C.

Compound `Cl.O=C(CN1CCC(N2C(=O)OCc3cc(Cl)ccc32)CC1)Nc1ccc(Oc2ccccc2)cc1` displayed a melting point of 262 to 267 °C.

For `Cc1cccc2c1N(C1CCN(CC(=O)Nc3ccc(C(=O)c4ccccc4)cc3)CC1)C(=O)OC2.Cl`, the melting point worked out at 217 °C.

The compound `Cl.O=C(CN1CCC(N2C(=O)OCc3cc(Cl)ccc32)CC1)Nc1ccc(C(=O)c2ccccc2)cc1` registered a melting point of 256 to 259 °C.

In the case of `Cc1ccc2c(c1)COC(=O)N2C1CCN(CC(=O)Nc2ccccc2Cl)CC1`, the melting point lay in the range of 146 to 148 °C.

Compound `CN(C)CCn1ccc2cc(NS(=O)(=O)c3ccccc3)ccc21` displayed a melting point of 139 to 141 °C.

Compound `Cc1cccc2c1N(C1CCN(CC(=O)Nc3ccccc3C(=O)c3ccccc3)CC1)C(=O)OC2.Cl` came in with a melting point of 168 to 176 °C.

For the compound `Cl.O=C(CN1CCC(N2C(=O)OCc3cc(Cl)ccc32)CC1)Nc1ccccc1C(=O)c1ccccc1`, the melting point fell in the range of 167 to 178 °C.

`Cc1ccc2c(c1)COC(=O)N2C1CCN(CC(=O)Nc2ccccc2C(=O)c2ccccc2)CC1`: the melting point was in the range of 167 to 170 °C.

For `Cc1ccc2c(c1)COC(=O)N2C1CCN(CC(=O)Nc2ccc(Oc3ccccc3)cc2)CC1.Cl`, the melting point lay within 234 to 237 °C.

For the compound `Cl.O=C(CN1CCC(N2C(=O)OCc3ccccc32)CC1)Nc1ccc2c(c1)-c1ccccc1C2O` (centres unmarked), the melting point fell in the range of 270 to 273 °C.

Regarding `Cl.O=C(CN1CCC(N2C(=O)OCc3cc(Cl)ccc32)CC1)Nc1ccc2c(c1)C(=O)c1ccccc1-2`, the melting point is > 300 °C (dec.).

Consider `Cc1ccc2c(c1)COC(=O)N2C1CCN(CC(=O)Nc2ccc3c(c2)C(=O)c2ccccc2-3)CC1.Cl`, for which the melting point was in the range of 281 to 285 °C.

Regarding `Cc1cccc2c1N(C1CCN(CC(=O)Nc3ccc4c(c3)C(=O)c3ccccc3-4)CC1)C(=O)OC2.Cl`, the melting point was > 300 °C (dec.).

`Cc1ccc2c(c1)COC(=O)N2C1CCN(CC(=O)Nc2ccc3c(c2)C(O)c2ccccc2-3)CC1.Cl` (centres unmarked) returned a melting point of 196 to 199 °C.

In the case of `Cc1cccc2c1N(C1CCN(CC(=O)Nc3ccc4c(c3)C(O)c3ccccc3-4)CC1)C(=O)OC2.Cl` (centres unmarked), the melting point fell in the range of 283 to 285 °C.

As to `Cc1ccc2c(c1)COC(=O)N2C1CCN(CC(=O)Nc2ccc3c(c2)-c2ccccc2C3O)CC1.Cl` (centres unmarked), the melting point was in the range of 238 to 241 °C.

For `Cl.O=C(CN1CCC(N2C(=O)OCc3ccccc32)CC1)Nc1cccc2c1-c1ccccc1C2=O`, the melting point is 270 to 273 °C.

For `O=C(CN1CCC(N2C(=O)OCc3ccc(Cl)cc32)CC1)Nc1ccc2oc3ccccc3c2c1`, the melting point worked out at 237 °C.

As for `O=C(CN1CCC(N2C(=O)OCc3cc(F)ccc32)CC1)Nc1ccc2c(c1)-c1ccccc1C2=O`, the melting point is 237 °C.

For the compound `Cc1cccc2c1COC(=O)N2C1CCN(CC(=O)Nc2ccc3[nH]c4ccccc4c3c2)CC1`, the melting point was 213 °C.

Compound `O=C(CN1CCC(N2C(=O)OCc3c(F)cccc32)CC1)Nc1ccc2[nH]c3ccccc3c2c1` gave a melting point of 195 °C.

Consider `Cl.O=C(CN1CCC(N2C(=O)OCc3ccccc32)CC1)Nc1cccc(C(=O)c2ccccc2)c1`, for which the melting point fell in the range of 214 to 218 °C.

In the case of `CCN(c1ccccc1)c1ccc(NC(=O)CN2CCC(N3C(=O)OCc4ccc(C)cc43)CC2)cc1`, the melting point was found to be 199 °C.

As for `O=C(CN1CCC(N2C(=O)OCc3cccc(Cl)c32)CC1)Nc1ccc2[nH]c3ccccc3c2c1`, the melting point is 180 °C.

For `O=C(CN1CCC(N2C(=O)OCc3ccccc32)CC1)Nc1ccc2c(c1)CCC2=O`, the melting point lay in the range of 206 to 209 °C.

Compound `O=C1OCc2ccccc2N1C1CCN(S(=O)(=O)c2cccc(Cl)c2Cl)CC1` registered a melting point of 185 to 187 °C.

`CCN(CC)CCc1c[nH]c2ccc(NS(=O)(=O)c3cccc4ccccc34)cc12` (as salt: hydrochloride) had a melting point of 255 to 257 °C.

The values are drawn from patent US20070059364A1, “Active substance combination comprising a compound with npy receptor affinity and a compound with 5-ht6 receptor affinity” (Laboratorios Del Dr. Esteve S.A., priority 2003, published 2007).
